# Reference: article PMC12767876, “Synthesis and evaluation of enantiomeric quinoline-2-carboxamides: positron emission tomography imaging agents for the translocator protein” (RSC Medicinal Chemistry, 2025)
# Read-outs that look alike come from different tables or passages of the source.
# Columns and labels:
# [1] = biological target: T1, TSPO (Homo sapiens, UniProt P30536); experiment: [3H]PK11195 competition binding assay on homogenised human brain tissue (frontal cortex) from rs6971 genotyped HAB, MAB and LAB donors; details: for influence of rs6971 polymorphism on binding: HAB vs. LAB, unpaired t-test, p = 0.5273, n = 6 per genotype
# Method: All studies using human tissue were conducted and approved in accordance with the National Health Service Research Ethics Committee Southeast Scotland (NHS-RECSE, Edinburgh Brain and Tissue Bank, 16/ES/0084). Informed consents were obtained from human participants of this study. The Edinburgh Brain and Tissue code and BNN reference numbers for all new tissue samples used in this study are: SD022/13 (BBN_15222), SD038/13 (BBN_18391), SD037/14 (BBN_23395), SD051/14 (BBN_24340), SD012/15 (BBN_25055), SD032/16 (0.01.29084), SD027/12 (BBN_13410), SD038/12 (BBN_4176), SD006/14 (BBN_20593), SD008/14 (BBN_20592), SD020/14 (BBN_22611), SD011/15 (BBN_24781), SD023/12 (BBN_3785), SD029/13 (BBN_15809), SD036/13 (BBN_18392), SD046/13 (BBN_18407), SD034/14 (BBN_22628) and SD031/15 (001.26124). […] Binding was terminated with the addition of ice cold buffer before being immediately filtered over Whatman GF/B filter paper (Whatman, UK) pre-treated with 0.3% polyethylenimine (Sigma-Aldrich, USA) using a Brandel harvester (Brandel, USA). Filter paper was then removed, placed into Optiphase HiSafe 3 (2.5 mL) (Perkin Elmer, USA) and counted 48 h later on a Hidex 300 SL (Hidex, Finland). […] All binding assays were performed in triplicate. GraphPad Prism version 9 (GraphPad Software, USA) was used to fit all binding affinity curves. Curves were fitted using a one-site binding model.
# [2] = biological target: human serum albumin (Homo sapiens, UniProt P02768); experiment: HPLC determination of plasma protein binding using human serum albumin coated column; assay type: in vitro ADME; details: read-out: % PPB (plasma protein binding) (converted)
# Description: (§1) The selection of potential candidates as neurological imaging agents requires evaluation of key physicochemical properties. […] For agents that rely primarily on passive diffusion, the membrane partition coefficient is particularly critical. […] Taken together, these physicochemical properties and in vivo studies support the potential of LW223 as a neurological imaging agent. Although the R-enantiomer of LW223 was used to determine the physicochemical properties in this study, these values are expected to be representative of the S-enantiomer, which is consistent with observations for other enantiomeric pairs.[32] [table]
# [3] = HPLC determination of partition coefficient (log P) using C18 column; assay type: physicochemical
# Description: as §1
# [4] = HPLC determination of membrane permeability (Pm) and membrane partition coefficient (Km) using immobilised artificial membrane (IAM) column; assay type: physicochemical
# Description: as §1
# [5] = biological target: T1, TSPO; set-up: method as in PMID 32859708; details: human brain (and heart) tissues, cited from earlier work
# [6] = set-up: method as in PMID 32859708, PMID 37795635; details: murine brain; cited from earlier work
# T1 sequence (P30536 2-169): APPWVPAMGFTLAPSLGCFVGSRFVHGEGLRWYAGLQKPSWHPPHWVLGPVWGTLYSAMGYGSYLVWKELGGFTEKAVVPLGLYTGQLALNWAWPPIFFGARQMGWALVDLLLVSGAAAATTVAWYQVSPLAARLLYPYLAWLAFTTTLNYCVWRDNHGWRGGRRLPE
# Sequence of human serum albumin (P02768 25-609): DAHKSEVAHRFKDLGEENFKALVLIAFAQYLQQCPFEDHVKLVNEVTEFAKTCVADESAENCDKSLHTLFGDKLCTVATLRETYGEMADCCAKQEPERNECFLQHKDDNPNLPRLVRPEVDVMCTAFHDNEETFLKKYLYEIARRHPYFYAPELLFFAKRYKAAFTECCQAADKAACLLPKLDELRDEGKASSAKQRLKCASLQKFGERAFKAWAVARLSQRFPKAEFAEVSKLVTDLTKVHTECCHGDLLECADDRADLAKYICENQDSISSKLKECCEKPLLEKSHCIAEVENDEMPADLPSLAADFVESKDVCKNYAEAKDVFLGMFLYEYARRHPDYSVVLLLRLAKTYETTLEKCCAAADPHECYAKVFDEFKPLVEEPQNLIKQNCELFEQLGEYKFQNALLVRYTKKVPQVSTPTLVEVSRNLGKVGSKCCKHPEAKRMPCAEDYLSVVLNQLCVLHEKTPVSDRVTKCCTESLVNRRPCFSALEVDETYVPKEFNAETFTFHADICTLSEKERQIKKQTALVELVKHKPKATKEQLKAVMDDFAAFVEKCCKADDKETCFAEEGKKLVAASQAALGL
influence of rs6971 polymorphism on binding ([1]; listed as S-enantiomer),fold lower affinity for TSPO compared to (R)-LW223 ([1]; human brain homogenate),fold lower affinity for TSPO relative to PK11195 ([1]; human brain homogenate),"Ki ([1]; human brain homogenate, all genotypes (HAB, MAB, LAB), n = 18, 1 nM [3H]PK11195, 1.5 h at 4 °C, Kd […], mean ± SD, read-out: TSPO affinity (Ki))",fraction unbound [2],chromatographic logP [3],K m (membrane partition coefficient) [4],Structure (SMILES),influence of rs6971 polymorphism on binding [1],influence of rs6971 polymorphism on binding [5],influence of rs6971 polymorphism on binding ([5]; listed as (R)-LW223),blood–brain barrier crossing and non-specific binding [6]
insensitive to the rs6971 polymorphism,7.5 fold,3.75 fold,4.5 ± 0.7 nM,–,–,–,"CC[C@H](C)N(C)C(=O)c1nc2ccccc2c(-c2ccccc2)c1CF [(S)-LW223, (S)-(N-sec-Butyl)-3-(fluoromethyl)-N-methyl-4-phenylquinoline-2-carboxamide]",not significantly influenced by the rs6971 polymorphism,–,–,–
–,–,–,–,0.08,3.98,184,"CCC(C)N(C)C(=O)c1cc2ccccc2c(-c2ccccc2Cl)n1 (centres unmarked) [PK11195, reference compound]",–,–,–,–
–,–,–,–,0.08,4.13,195,"CC[C@@H](C)N(C)C(=O)c1nc2ccccc2c(-c2ccccc2)c1CF [LW223, (R)-N-(sec-Butyl)-3-(fluoromethyl)-N-methyl-4-phenylquinoline-2-carboxamide]",–,unaffected by rs6971,not significantly influenced by the rs6971 polymorphism,effectively crosses the BBB and exhibits low non-specific binding
